Values of other authors in US20030008851A1, “Acne treatment including dual-package system” (priority 2001, published 2003).

Experiments:
[1] = not given; remark: listed apart in the source

SMILES	pH of the solution produced (1 gram in about 460 ml of water at room temperature)	volume of water dissolving 1 gram (1 gram, water, room temperature)	solubility in water (in words) (water)	solubility in water (water, room temperature)	volume of alcohol dissolving 1 gram ([1]; 1 gram)	solubility in alcohol (in words) [1]
O=C(O)c1ccccc1O [Salicylic acid]	2.4	about 460 ml	sparingly soluble	about 0.2 % by weight	about 2.7 ml	–
O=C(OOC(=O)c1ccccc1)c1ccccc1 [Benzoyl peroxide]	–	–	sparingly soluble	–	–	sparingly soluble
